Laboratory results from US20250127759A1, “METHODS AND DOSING REGIMENS COMPRISING A CDK2 INHIBITOR FOR THE TREATMENT OF CANCER” (PFIZER INC., priority 2021, published 2025).
Where two headings read alike, the source gives them in different places.

Assay: Phase 1/2a study, plasma pharmacokinetics of PF-07104091
Type: in vivo, human
Conditions: human, plasma, po; for Cmax: read-out: Cmax; for half-life: read-out: t1/2 (converted)
Text: Blood samples will be collected for measurement of plasma concentrations of PF-07104091 as specified in the protocol. Samples will be used to evaluate the PK of PF-07104091. Samples collected for analyses of PF-07104091 plasma concentration may also be used to evaluate safety or efficacy aspects related to concerns arising during or after the study, for metabolite identification and/or evaluation of the bioanalytical method, or for other internal exploratory purposes.
Plasma PF-07104091 concentrations will be summarized descriptively (n, mean, standard deviation, coefficient of variation, median, minimum, maximum, geometric mean and its associated coefficient of variation) by dose, cycle, day and nominal time. Individual participant plasma PF-07104091 concentration-time data within a dose interval (with exception of the food effect substudy) after Cycle 1 Day 1 and Cycle 1 Day 15 will be analyzed using noncompartmental methods to determine single and multiple dose PK parameters. For participants in the food effect substudy, individual plasma PF-07104091 concentration-time data after Cycle 1 Day 15 and Cycle 1 Day 16 will be analyzed using noncompartmental methods to determine multiple dose PK parameters. For Part 1 of the study, single dose PK parameters to be estimated will include the Cmax, Tmax, and AUClast, and if data permit, t1/2, CL/F, and Vz/F. Multiple dose PK parameters to be estimated will include Cmax,ss, Tmax,ss, AUCT,ss, Cmin,ss, CL/F,ss, and if data permit, V/Fss, t1/2, and Rac. For Part 2 of the study (with exception of the food effect substudy), single dose PK parameters to be estimated will include Cmax, Tmax and AUClast. Multiple dose PK parameters to be estimated will include Cmax,ss, Tmax,ss, AUClast, Cmin,ss, and Rac. The single dose and steady state PK parameters will be summarized descriptively (n, mean, standard deviation, coefficient of variation, median, minimum, maximum, geometric mean and its associated coefficient of variation) by dose level, cycle and day. For participants in the food effect substudy, multiple dose PK parameters to be estimated will include Cmax,ss, AUCT,ss, Tmax,ss, Cmin,ss, CL/Fss, and if data permit, V/Fss and t1/2.
An ongoing Phase 1/2a, open-label, multicenter, multiple dose study is being conducted to determine the safety, tolerability, PK, PD, and preliminary anti-tumor activity of PF-07104091 as a single agent and in combination with endocrine therapy. PF-07104091 is administered orally twice daily (BID) during 28-day cycles.
Preliminary concentration-time data of PF-07104091 following single and multiple oral administration at 75 mg BID to 500 mg BID as monotherapy or in combination with endocrine therapy alone or in combination with palbociclib and endocrine therapy were available from 44 participants with advanced solid tumors and HR-positive HER2-negative advanced or metastatic breast cancer. The preliminary concentration-time data were analyzed by noncompartmental approach using actual PK sampling times.
[…] Individual values are listed when the number of participants with available parameters is less than 3.

[1] = 150 mg, Cycle 1 Day 1, single oral dose, 150 mg BID monotherapy, geometric mean (CV %)
[2] = 150 mg, Cycle 1 Day 15, repeated BID oral, 150 mg BID monotherapy, geometric mean (CV %)
[3] = 225 mg, Cycle 1 Day 1, single oral dose, 225 mg BID monotherapy, geometric mean (CV %)
[4] = 225 mg, Cycle 1 Day 15, repeated BID oral, 225 mg BID monotherapy, geometric mean (CV %)
[5] = 300 mg, Cycle 1 Day 1, single oral dose, 300 mg BID monotherapy, geometric mean (CV %)
[6] = 300 mg, Cycle 1 Day 15, repeated BID oral, 300 mg BID monotherapy, geometric mean (CV %)
[7] = 375 mg, Cycle 1 Day 1, single oral dose, 375 mg BID monotherapy, individual values
[8] = 500 mg, Cycle 1 Day 1, single oral dose, 500 mg BID monotherapy, geometric mean (CV %)
[9] = 500 mg, Cycle 1 Day 15, repeated BID oral, 500 mg BID monotherapy, individual value, N = 1

Molecule `COCc1cc(C(=O)Nc2cc([C@H]3CC[C@@H](OC(=O)NC(C)C)C3)[nH]n2)n(C)n1` [PF-07104091, (1R,3S)-3-[3-({[3-(methoxymethyl)-1-methyl-1H-pyrazol-5-yl]carbonyl}amino)-1H-pyrazol-5-yl]cyclopentyl propan-2-ylcarbamate] has an AUC(0-t) [1] of 4480 ng·h/mL, a Cmax [1] of 739 ng/mL and a Tmax (150 mg, Cycle 1 Day 1, single oral dose, 150 mg BID monotherapy, median (range), read-out: Tmax) of 2 h. For the same molecule, the half-life (150 mg, Cycle 1 Day 1, single oral dose, 150 mg BID monotherapy, n = 1) was 2.8 h, the AUC(0-t) [2] was 8020 ng·h/mL and the Cmax [2] was 1320 ng/mL. For the same molecule, the Tmax (150 mg, Cycle 1 Day 15, repeated BID oral, 150 mg BID monotherapy, median (range), read-out: Tmax) was 2.2 h, the half-life (150 mg, Cycle 1 Day 15, repeated BID oral, 150 mg BID monotherapy, n = 1) was 1.9 h and the half-life (225 mg, Cycle 1 Day 1, single oral dose, 225 mg BID monotherapy, arithmetic mean ± SD) was 2.2 ± 0.7 h. For the same molecule, the AUC(0-t) [3] was 6630 ng·h/mL, the Cmax [3] was 1390 ng/mL and the Tmax (225 mg, Cycle 1 Day 1, single oral dose, 225 mg BID monotherapy, median (range), read-out: Tmax) was 3.9 h. It also gave a half-life (225 mg, Cycle 1 Day 15, repeated BID oral, 225 mg BID monotherapy, arithmetic mean ± SD) of 2.6 ± 0.9 h, an AUC(0-t) [4] of 10700 ng·h/mL and a Cmax [4] of 2350 ng/mL. It also gave a Tmax (225 mg, Cycle 1 Day 15, repeated BID oral, 225 mg BID monotherapy, median (range), read-out: Tmax) of 2 h, a half-life (300 mg, Cycle 1 Day 1, single oral dose, 300 mg BID monotherapy, arithmetic mean ± SD) of 2 ± 0.6 h and an AUC(0-t) [5] of 9110 ng·h/mL. The Cmax [5] was 1820 ng/mL, the Tmax (300 mg, Cycle 1 Day 1, single oral dose, 300 mg BID monotherapy, median (range), read-out: Tmax) was 2 h and the half-life (300 mg, Cycle 1 Day 15, repeated BID oral, 300 mg BID monotherapy, arithmetic mean ± SD) was 2.8 ± 0.2 h. For the same molecule, the AUC(0-t) [6] was 12500 ng·h/mL, the Cmax [6] was 2570 ng/mL and the Tmax (300 mg, Cycle 1 Day 15, repeated BID oral, 300 mg BID monotherapy, median (range), read-out: Tmax) was 2.1 h. The AUC(0-t) [7] was 11600 ng·h/mL, the Cmax [7] was 2520 ng/mL and the Tmax (375 mg, Cycle 1 Day 1, single oral dose, 375 mg BID monotherapy, individual values, read-out: Tmax) was 4 h. For the same molecule, the half-life (375 mg, Cycle 1 Day 1, single oral dose, 375 mg BID monotherapy, n = 1) was 1.5 h, the AUC(0-t) [8] was 15200 ng·h/mL and the Cmax [8] was 2980 ng/mL. The Tmax (500 mg, Cycle 1 Day 1, single oral dose, 500 mg BID monotherapy, median (range), read-out: Tmax) was 5.3 h, the AUC(0-t) [9] was 21500 ng·h/mL and the Cmax [9] was 4420 ng/mL. The Tmax (500 mg, Cycle 1 Day 15, repeated BID oral, 500 mg BID monotherapy, individual value, N = 1, read-out: Tmax) was 4 h and the Tmax (oral administration at doses up to 300 mg BID, read-out: median Tmax) was 0.5 to 4 h.
